Consider 38 compounds from patent US5081121A, “4(1H)-quinolone derivatives” (priority 1988, dated 1992).

For the assay, the system named is left atrial muscle. The experiment in a line: Test Method 1: enhancement of contracting force of left atrial muscle extirpated from a guinea pig (electrically stimulated at 1 Hz). The format is cell-based. Particulars: Krebs-Henseleit solution 32° C.; for EC20: read-out: EC20 (molar concentration for enhancing the left atrial muscle contracting force to the level of 20%); for EC50: read-out: EC50 (molar concentration for enhancing the left atrial muscle contracting force to the level of 50%); for EC100: read-out: EC100 (molar concentration for enhancing the left atrial muscle contracting force to the level of 100%). As for the experimental part: The drug according to the present invention was evaluated with reference to the physiological activities by means of a method using an atrial muscle extirpated from a guinea pig.
Male guinea pigs having a body weight of 300-500 g were made swooned by striking his head and were bleeded to death. The heart was extirpated and the right and left atrial muscles were cut off. The tops of each atrial muscle were fixed with cerrefines. The muscle was suspended into an organ-bath in which a Krebs-Henseleit solution (at 32° C.) was filled, and a 95% O2 -5% CO2 gas was flown through the bath. The left atrial muscle was stimulated electrically at a frequency of 1 Hz to stabilize the contracting force of the left atrial muscle. Then, the compounds according to the present invention represented by the general formulae were added to the organ-bath. As for the right atrial muscle, after the pulsation was stabilized, the compounds according to the present invention were added in the organ-bath in the same manner as described above.
The compounds according to the present invention represented by the aforementioned general formulae enhanced the left atrial muscle contracting force dependent on their concentrations. The drug concentrations for enhancing the left atrial muscle contracting force to the levels of 20%, 50% and 100%, respectively are listed in Table 2. EC20, EC50 and EC100 indicate the molar concentration for enhancing the left atrial muscle contracting force to the levels of 20%, 50% and 100%, respectively. The enhancing rates of the pulsation of the right atrial muscle are also listed within parentheses. The minus values in parentheses indicate that the pulsation of the right atrial muscle is decreased.
As a control drug, theophylline ([…].

Read-outs that look alike come from different tables or passages of the source.

`CCn1ccc(=O)c2c(O)ccc(C)c21` [Compound 61, 1-ethyl-5-hydroxy-8-methyl-4(1H)-quinolone]: where the note is “Cavia porcellus”, the EC20 was less than 100 µM and the EC50 stood at 107 µM.
For `CCOc1cc2[nH]ccc(=O)c2cc1OCC` [Compound 10, 6,7-diethoxy-4(1H)-quinolone], where the note is “Cavia porcellus”, the EC20 is 1.88 µM, the EC50 was determined as 19.3 µM and the EC100 turned out to be 116 µM.
For `CCn1ccc(=O)c2cc(OC)ccc21` [Compound 73, 1-ethyl-6-methoxy-4(1H)-quinolone], for the setting “Cavia porcellus”, the EC20 was less than 100 µM, the EC50 is 115 µM and the EC100 was determined as 241 µM.
Regarding `Cc1cc(Cl)cc2c(=O)cc[nH]c12` [Compound 71, 6-chloro-8-methyl-4(1H)-quinolone], under “Cavia porcellus”, the EC20 is 12.3 µM and the EC50 worked out at 54.3 µM.
For the compound `CCOc1cc2c(=O)cc[nH]c2cc1OC` [Compound 48, 6-ethoxy-7-methoxy-4(1H)-quinolone], where the note is “Cavia porcellus”, the EC20 was 12.6 µM, the EC50 was 106 µM and the EC100 was determined as 646 µM.
For `CCOC(=O)c1c[nH]c2c(OC)cc(OCC)cc2c1=O` [Compound 76, 6-ethoxy-3-ethoxycarbonyl-8-methoxy-4(1H)-quinolone], for the setting “Cavia porcellus”, the EC20 was 38.9 µM, the EC50 turned out to be 73.3 µM and the EC100 was 305 µM.
In the case of `CCn1cc(C(=O)N2CCN(c3ccc([N+](=O)[O-])cc3)CC2)c(=O)c2cc(OC)c(OC)cc21` [Compound 110, 6,7-dimethoxy-1-ethyl-3-{1-[4-(4-nitrophenyl)piperazinyl]carbonyl}-4(1H)-quinolone], where the note is “Cavia porcellus”, the EC20 came to 105 µM and the EC50 was 178 µM.
As to `COc1ccc(C)c2c(=O)c(C(=O)N3CCC(c4ccccc4)CC3)c[nH]c12` [Compound 106, 8-methoxy-5-methyl-3-(4-phenylpiperidinyl)carbonyl-4(1H)-quinolone], under “Cavia porcellus”, the EC20 was found to be 102 µM, the EC50 came to 245 µM and the EC100 turned out to be 447 µM.
As to `O=c1cc[nH]c2ccc(CCO)cc12` [Compound 64, 6-(2-hydroxy)ethyl-4(1H)-quinolone], for the setting “Cavia porcellus”, the EC20 turned out to be 157 µM, the EC50 came out at 234 µM and the EC100 stood at 495 µM.
As for `COc1cc2c(=O)c(C(=O)O)cn(C)c2c(C)c1C` [Compound 89, 3-carboxyl-6-methoxy-1,7,8-trimethyl-4(1H)-quinolone], where the note is “Cavia porcellus”, the EC20 was less than 100 µM and the EC50 worked out at 657 µM.
On to `CCOC(=O)c1ccc2[nH]ccc(=O)c2c1` [Compound 65, 6-ethoxycarbonyl-4(1H)-quinolone], for which, under “Cavia porcellus”, the EC20 is less than 100 µM and the EC50 amounted to 345 µM.
With `C/C=C/Cc1c(O)c(OC)cc2c(=O)cc[nH]c12` [Compound 72, 8-(2-trans-butenyl)-7-hydroxy-6-methoxy-4(1H)-quinolone], the “EC20 (molar concentration for enhancing the left atrial muscle contracting force to the level of 20%)” value amounted to 35.5 µM, the “EC100 (molar concentration for enhancing the left atrial muscle contracting force to the level of 100%)” value turned out to be 211 µM and the EC50 was 63.1 µM.
On to `CCOc1cc2c(=O)cc(C3CC3)[nH]c2cc1OC` [Compound 119, 2-cyclopropyl-6-ethoxy-7-methoxy-4(1H)-quinolone], for which, for the setting “Cavia porcellus”, the EC20 came to 37.6 µM and the EC50 came out at 84.1 µM.
For the compound `CCn1cc(C(=O)O)c(=O)c2c(C)cccc21` [Compound 87, 3-carboxyl-1-ethyl-5-methyl-4(1H)-quinolone], for the setting “Cavia porcellus”, the EC20 is less than 100 µM and the EC50 is 327 µM.
For `COc1cc2[nH]cc(C(=O)N3CCC(c4ccccc4)CC3)c(=O)c2cc1OC` [Compound 105, 6,7-dimethoxy-3-(4-phenylpiperidinyl)carbonyl-4(1H)-quinolone], where the note is “Cavia porcellus”, the EC20 is less than 100 µM and the EC50 came out at 221 µM.
For `C=CCc1cccc2c(=O)cc[nH]c12` [Compound 70, 8-(2-propenyl)-4(1H)-quinolone], under “Cavia porcellus”, the EC20 is less than 100 µM and the EC50 amounted to 159 µM.
With `CCOc1cc2c(=O)c(C(=O)O)cn(CC)c2c(C)c1C` [Compound 88, 3-carboxyl-7,8-dimethyl-6-ethoxy-1-ethyl-4(1H)-quinolone], for the setting “Cavia porcellus”, the EC20 was less than 100 µM, the EC50 came out at 202 µM and the EC100 turned out to be 856 µM.
For `CCOc1cc2c(cc1OC)c(=O)ccn2CC(C)C` [Compound 69, 1-i-butyl-7-ethoxy-6-methoxy-4(1H)-quinolone], under “Cavia porcellus”, the EC20 was 4.32 µM and the EC50 was determined as 462 µM.
For `CCCn1cc(C(=O)O)c(=O)c2cc(OC)c(OCC)cc21` [Compound 93, 3-carboxyl-7-ethoxy-6-methoxy-1-n-propyl-4(1H)-quinolone], under “Cavia porcellus”, the EC20 was 376 µM and the EC50 amounted to 465 µM.
`COCOc1cc2[nH]ccc(=O)c2cc1OC` [Compound 56, 6-methoxy-7-methoxymethoxy-4(1H)-quinolone]: under “Cavia porcellus”, the EC20 worked out at 114 µM and the EC50 came out at 405 µM.
Turning to `CCOc1ccc2c(c1)c(=O)ccn2CC` [Compound 74, 6-ethoxy-1-ethyl-4(1H)-quinolone], for the setting “Cavia porcellus”, the EC20 was less than 100 µM, the EC50 worked out at 108 µM and the EC100 was determined as 546 µM.
For `CCOCCOC(=O)c1c[nH]c2c(OC)ccc(OCC)c2c1=O` [Compound 79, 5-ethoxy-3-[(2-ethoxy)ethoxycarbonyl]-8-methoxy-4(1H)-quinolone], in that order: less than 100 µM, 135 µM and 680 µM.
As to `COc1cc2[nH]c(-c3ccco3)cc(=O)c2cc1OC` [Compound 94, 6,7-dimethoxy-2-(2-furyl)-4(1H)-quinolone], under “Cavia porcellus”, the EC20 was less than 100 µM, the EC50 was less than 100 µM and the EC100 was determined as 417 µM.
As for `CC(=O)c1cccc2c(=O)cc[nH]c12` [Compound 44, 8-acetyl-4(1H)-quinolone], where the note is “Cavia porcellus”, the EC20 was less than 100 µM, the EC50 turned out to be 136 µM and the EC100 stood at 776 µM.
Take `CCn1cc(C(=O)O)c(=O)c2cc(C)ccc21` [Compound 90, 3-carboxyl-1-ethyl-6-methyl-4(1H)-quinolone]: under “Cavia porcellus”, the EC20 was found to be 181 µM, the EC50 turned out to be 345 µM and the EC100 came to 394 µM.
In the case of `CCn1ccc(=S)c2cc3c(cc21)OCO3` [Compound 63], under “Cavia porcellus”, the EC20 is 42.2 µM and the EC50 came out at 112 µM.
In the case of `CCn1cc(C(=O)N2CCN(c3ccccc3OC)CC2)c(=O)c2cc(C)ccc21` [Compound 108, 1-ethyl-3-{1-[4-(2-methoxyphenyl)piperazinyl]carbonyl}-6-methyl-4(1H)-quinolone], for the setting “Cavia porcellus”, the EC20 turned out to be 44.2 µM and the EC50 was 126 µM.
`C=CCOc1cc2[nH]ccc(=O)c2cc1OC` [Compound 53, 7-allyloxy-6-methoxy-4(1H)-quinolone]: for the setting “Cavia porcellus”, the EC20 is less than 100 µM, the EC50 was found to be 117 µM and the EC100 came to 240 µM.
As for `N#CCc1ccc2[nH]ccc(=O)c2c1` [Compound 45, 6-cyanomethyl-4(1H)-quinolone], where the note is “Cavia porcellus”, the EC20 was less than 100 µM, the EC50 turned out to be 274 µM and the EC100 came to 510 µM.
On the same counts, the results for `CCOc1cc(OC)cc2c(=O)cc[nH]c12` [Compound 47, 8-ethoxy-6-methoxy-4(1H)-quinolone] are less than 100 µM, less than 100 µM and 200 µM.
With `COc1cc2[nH]ccc(=O)c2cc1OC` [Compound 6, 6,7-dimethoxy-4(1H)-quinolone], under “Cavia porcellus”, the EC20 was 10 µM, the EC50 was 35.5 µM and the EC100 was found to be 234 µM.
With `CCOC(=O)c1cn(CC)c2c(C)ccc(OC(C)=O)c2c1=O` [Compound 82, 5-acetoxy-3-ethoxycarbonyl-1-ethyl-8-methyl-4(1H)-quinolone], where the note is “Cavia porcellus”, the EC20 is less than 100 µM and the EC50 came to 168 µM.
`O=c1cc(C2CC2)[nH]c2ccccc12` [Compound 96, 2-cyclopropyl-4(1H)-quinolone]: for the setting “Cavia porcellus”, the EC20 amounted to 123 µM and the EC50 came to 374 µM.
On the same counts, the results for `CCn1ccc(=O)c2ccc(C)cc21` [Compound 57, 1-ethyl-7-methyl-4(1H)-quinolone] are less than 100 µM and 248 µM.
For the compound `CCOC(=O)c1c[nH]c2c(S(=O)(=O)c3ccccc3)cccc2c1=O` [Compound 83, 3-ethoxycarbonyl-8-phenylsulfonyl-4(1H)-quinolone], under “Cavia porcellus”, the EC20 is 19.5 µM and the EC50 is 363 µM.
On to `O=c1cc[nH]c2cc(N3CCNCC3)ccc12` [Compound 67, 7-piperazinyl-4(1H)-quinolone], for which, for the setting “Cavia porcellus”, the EC20 was 46.8 µM, the EC50 amounted to 211 µM and the EC100 worked out at 944 µM.
Consider `CCCCn1ccc(=O)c2cc(OC)c(OCC)cc21` [Compound 68, 1-n-butyl-7-ethoxy-6-methoxy-4(1H)-quinolone], for which, under “Cavia porcellus”, the EC20 was found to be 2.82 µM and the EC50 came out at 19.5 µM.
For `COCCOc1cc2[nH]ccc(=O)c2cc1OC` [Compound 55, 6-methoxy-7-(2-methoxy)ethoxy-4(1H)-quinolone], in that order: 132 µM and 394 µM.
